These results are taken from patent publication US10941384B2, “Compositions and methods for promoting the generation of endocrine cells” (President and Fellows of Harvard College, priority 2013, dated 2021).

The test system of series [1] is Human C-peptide / insulin-expressing cells (H1-derived pancreatic progenitors). Kind of series: High-content screen 2 and dose response: insulin-expressing cells by immunofluorescence (Cellomics). Format: cell-based. The settings on record: for auto-fluorescence and toxicity in dose-curve measurements: at 6.75 M and 27 M. As for the experimental part: hESC culture and differentiation. Protocol 2. Human ESCs were routinely cultured on hESC-certified matrigel (BD Biosciences) in mouse embryonic fibroblast conditioned hES media (MEF-CM). MEF-CM media was produced by conditioning hESC media for […] on a confluent layer of mouse embryonic fibroblasts and subsequently adding 20 ng/ml bFGF (Invitrogen). hES media was composed of DMEM/F12 (GIBCO) media supplemented with 20% KnockOut Serum Replacement (GIBCO), 2 mM Lglutamine (L-Glu, GIBCO), 1.1 mM 2-mercaptoethanol (GIBCO), 1 mM nonessential amino acids (GIBCO), 1× penicillin/strepto-mycin (P/S,GIBCO). Cells were passaged at the ratio of 1:6-1:20 every 4-7 days using TrypLE Express (Invitrogen).
To initiate differentiation the cells were dissociated using TrypLE Express to single cells and seeded at 150,000 cell/cm2 onto 1:30 dilution of growth factor reduced matrigel (BD Biosciences) in DMEM/F12 in MEF-CM media with 10 μM Y27632 (StemGent). Two days following seeding the differentiation was started. Cells were exposed to RPMI 1640 (Invitrogen) supplemented with 2% reagent grade BSA (Proliant) and 20 ng/ml human Wnt3a (R&D Systems)+100 ng/ml rhActivinA (R&D Systems)+8 ng/ml bFGF (Invitrogen) for the first day (stage 1.1). During day 2 and 3 the dayl media was used with the exception of Wnt3a (stage 1.2). During days 4-5 cells were treated with RPMI+2% BSA+50 ng/ml FGF7 (Peprotech) (stage 2). For days 6-9 cells were treated with DMEM-HG (Invitrogen)+0.1% Albumax BSA (Invitrogen)+1:200 ITS-X (Invitrogen)+50 ng/ml FGF7 (Peprotech)+2 μM RA (Sigma)+0.25 μM SANT-1 (Sigma)+20 ng/ml rhActivinA (R&D Systems)+100 ng/ml rhNoggin (R&D Systems) (stage 3). During days 10-12 cells were treated with DMEM-HG (Invitrogen)+0.1% Albumax BSA (Invitrogen)+1:200 ITS-X (Invitrogen)+100 ng/ml rhNoggin (R&D Systems)+0.25 μM SANT-1 (Sigma)+100 nM PDBu (EMD Biosciences) (stage 4). During days 13-15 cells were treated with DMEM-HG (Invitrogen)+0.1% Albumax BSA (Invitrogen)+1:200 ITS-X (Invitrogen)+100 ng/ml rhNoggin (R&D Systems)+1 μM Alk5 inhibitor (Axxora) (stage 5). PKC inhibitor Bisindolylmaleimide I (VWR) was added during stage 5.
High-content screen 2. The compound libraries used for this study: 400 compounds, including bioactive molecules, natural products, and 400 compounds that are known modulators of development or signaling pathways. For the chemical screen the day 8 cells were dispersed into single cells, using TrypLE, and replated at 150,000 cells/well of a 96 well plate in the presence of stage 3 media and 10 μM Y27632. Compounds were added to the wells on day 10 in stage 4 media, then again on days 12 and 14 in stage 5 media. Media was changed every other day suing the treatment. Cells were fixed using 4% paraformaldehyde (PFA, Sigma) on day 15 and stained using mouse antiglucagon and rabbit anti-c-peptide antibodies.
Screen 2: Immunostaining. Following 4% PFA fixation, cells were 3×5 min washed in PBS and blocked with 10% donkey serum (Jackson Immunoresearch) in PBS/0.3% Triton X. Primary antibodies were incubated overnight at 4 C. Secondary antibodies were incubated for 1 hr at room temperature. […]

The test system of series [2] is HUES8 pancreatic progenitors. Kind of series: Insulin cell number in HUES8 pancreatic progenitors in the presence of Noggin and Alk5 inhibitors. In kind it is cell-based, human. Conditions: HUES8, 6 days, in the presence of Noggin and Alk5 inhibitor, versus DMSO. From the text:
FIGS. 1A-1K show high-content screens to increase the number of NGN3-expressing and insulin-expressing cells. FIG. 1A is a schematic showing the stepwise differentiation from hESCs to pancreatic endocrine cells. DE, definitive endoderm; PP, pancreatic progenitor; EP, endocrine progenitor; EN, endocrine cells. Scheme of high-content screen beginning with a population of cells that have differentiated into pancreatic progenitors. FIGS. 1B and 1F are schematic diagrams showing the method of high-content screen, which begins with a population of cells that have differentiated into pancreatic progenitors. FIGS. 1C and 1G show the chemical structures of a PKCβ inhibotor and Bisindolylmaleimide I compound identified from the screen. FIGS. 1D and 1H show an efficacy curve of the hit compounds. […] The hit compounds effect on HUES 8-pancreatic progenitor population. After 14 d of differentiation, the HUES 8-pancreatic progenitor populations were treated with 10 M PKCβ inhibitor for four days and then stained with NGN 3 antibody (green). NGN3, neurogenin 3. Scale bar is 100 m. […] Percentage of insulin-positive cells with s.d. […] The percentage of NGN3^+ cells was analyzed with the Cellomics high content screening system (Thermo Scientific). […] Insulin cell number with was counted over the same area in different wells. […]

In series [3] the test system is INS, GCG and SST transcripts (H1-derived pancreatic progenitors). Put plainly: qRT-PCR of endocrine hormone transcripts (INS, GCG, SST). Format: cell-based, human. The settings on record: 3 day treatment. From the text:
FIGS. 3A-3D show PKC agonists block the formation of insulin-expressing cells. […] Wells were stained for insulin and cell number counted in representative portions of the well by the Cellomics high content screening system. Error bars represent s.d. Two-tailed T-test p<0.05. […] Endocrine induction is blocked by PKC agonist TPB and reversed by Bis1. […] P<0.001. The decrease in INS and GCG expression due to TPB treatment is reversed by BisI. […] P<0.001.
H1-derived pancreatic progenitors were treated for 3 days with DMSO or 3 μM BisI. qRT-PCR for INS, GCG and SST performed and shown as fold change over DMSO control.
(In general: In qPCR the cycle at which signal appears reflects the starting amount.)

For orientation: EC50 means the midpoint of the concentration-response curve. As to `CN(C)CCCn1cc(C2=C(c3c[nH]c4ccccc34)C(=O)NC2=O)c2ccccc21` [BisI, Bisindolylmaleimide I], the insulin-expressing cells entry in series [1] (1 M BisI, 6 days, DMSO-treated controls 0.9 0.1%) is reported as “up to 2.7 0.8%”. Moreover, the EC50 in series [1] (Homo sapiens, H1, with Noggin and Alk5 inhibitor, FIG. 1H, read-out: EC50, total number of insulin-expressing cells) worked out at 0.848 µM. The “auto-fluorescence and toxicity in dose-curve measurements” value in series [1] was “Significant auto-fluorescence and toxicity”; in series [1] (listed as Bisindolylmaleimide I), “considerable auto-fluorescence and toxicity”. Besides, in series [2], the “increase of the numbers of insulin-expressing cells” value is given as “up to 7.5 fold”. Besides, the “effect of TPB on INS and GCG expression in the presence of BisI” value in series [3] (3 M BisI + 5 M TPB) was “reversed”.
For the compound `CCCC(=O)O[C@@H]1[C@@H](C)[C@@]2(O)[C@@H](C=C(CO)C[C@]3(O)C(=O)C(C)=C[C@@H]23)[C@@H]2C(C)(C)[C@]12OC(=O)CCC` [PdBu, phorbol 12,13-dibutyrate], the “decline in endocrine differentiation, number of insulin+ cells” value in series [1] (three-day treatment of H1-derived pancreatic progenitors (FIG. 3A: 1 M, 6 days)) is 3.7 fold.
In the case of `CC(C)[C@H]1C(=O)N[C@H](CO)Cc2cc(NC(=O)/C=C/C=C/c3ccc(C(F)(F)F)cc3)ccc2N1C` [TPB, (2S,5S)-(E,E)-8-(5-(4-(trifluoromethyl)phenyl)-2,4-pentadienoylamino)benzolactam], the “expression of endocrine hormones insulin and glucagon” value in series [3] (5 M TPB) is listed as “decrease”. Moreover, the “effect on endocrine induction by Alk5 inhibitor (INS and GCG transcripts)” value in series [3] (TPB combined with Alk5 inhibitor) is “sufficient to block the effect of Alk5 inhibitors on endocrine induction”.
